“And” between values parts separate entries of the source, which are not always exact repeats. Identical values can stand only once. Like-named read-outs stand apart in the source and are kept apart here. Blank lines part the entries; values can stand above or below the molecule they belong to.
Key:
[1] = amide bond, BOP, CH2Cl2, 40.0 °C
[2] = amide bond; 16-membered ring; TFA; BOP/DMAP/Et3N; CH2Cl2/DMF; 40.0 °C; 2 steps
Factor VIIa = molecular target: T1, Factor VIIa (Homo sapiens, UniProt P08709); test: Factor VIIa assay; type: biochemical; conditions: measured in the Factor VIIa assay described above; several values in a cell are repeat determinations
T1 construct: purchased Haematologic Technologies (purified) or Novo Nordisk (recombinant)
T1 sequence (P08709 213-466 limits assumed): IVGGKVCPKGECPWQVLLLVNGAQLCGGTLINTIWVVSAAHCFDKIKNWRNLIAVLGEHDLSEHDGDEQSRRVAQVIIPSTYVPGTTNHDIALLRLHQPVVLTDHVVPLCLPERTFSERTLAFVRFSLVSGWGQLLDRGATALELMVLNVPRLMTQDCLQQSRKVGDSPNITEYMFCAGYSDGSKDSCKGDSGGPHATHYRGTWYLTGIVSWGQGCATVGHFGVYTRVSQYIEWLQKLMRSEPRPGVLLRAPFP
T1 sequence (P08709 61-212 limits assumed): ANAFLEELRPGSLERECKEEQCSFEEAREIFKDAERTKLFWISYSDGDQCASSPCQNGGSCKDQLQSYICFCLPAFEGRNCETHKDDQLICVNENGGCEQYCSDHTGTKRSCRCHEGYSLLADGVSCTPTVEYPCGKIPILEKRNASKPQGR
T1 sequence (P13726 33-251 partner limits assumed): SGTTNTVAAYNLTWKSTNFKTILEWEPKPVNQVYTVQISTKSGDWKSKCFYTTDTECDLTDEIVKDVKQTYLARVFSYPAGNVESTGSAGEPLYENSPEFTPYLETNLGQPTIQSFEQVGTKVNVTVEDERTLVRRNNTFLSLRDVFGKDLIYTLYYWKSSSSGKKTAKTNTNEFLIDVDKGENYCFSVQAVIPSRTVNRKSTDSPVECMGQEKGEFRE

[3] = system: patients with acute coronary syndromes; conditions: cited from earlier work
[4] = system: patients undergoing total knee replacement; conditions: cited from earlier work
[5] = system: patients undergoing coronary angioplasty; conditions: cited from earlier work

Molecule: CC(C)S(=O)(=O)c1ccc2cc1CN(C)C(=O)[C@H](Nc1ccc3c(c1)C(=O)NC3)c1ccc(cc1)CCCC(=O)N2
ring closure, yield of all isomers ([1]; from CNCc1cc(NC(=O)CCCc2ccc(C(Nc3ccc4c(c3)C(=O)NC4)C(=O)O)cc2)ccc1S(=O)(=O)C(C)C, 8.05 mM, 16.0 h): 31.8%

Molecule: CC(C)S(=O)(=O)c1ccc2cc1CN(C)C(=O)[C@H](Nc1ccc3c(c1)C(=O)NCC3)c1ccc(cc1)CCCC(=O)N2
ring closure, yield of all isomers ([1]; from CNCc1cc(NC(=O)CCCc2ccc(C(Nc3ccc4c(c3)C(=O)NCC4)C(=O)O)cc2)ccc1S(=O)(=O)C(C)C, 5.11 mM, 7.0 h): 19.9%

Molecule: CCS(=O)(=O)c1ccc2cc1CNC(=O)[C@H](Nc1ccc3c(c1)C(=O)NC3)c1ccc(cc1)CCCC(=O)N2
ring closure, yield of all isomers ([1]; from CCS(=O)(=O)c1ccc(NC(=O)CCCc2ccc(C(Nc3ccc4c(c3)C(=O)NC4)C(=O)O)cc2)cc1CNC(=O)OC(C)(C)C, 6.6 mM, 6.0 h, 2 steps): 27.7%

Molecule: CCS(=O)(=O)c1ccc2cc1CNC(=O)[C@H](Nc1ccc3c(c1)C(=O)NCC3)c1ccc(cc1)CCCC(=O)N2
ring closure, yield after HPLC [2]: 28.4% | ring closure, yield of all isomers ([1]; from CCS(=O)(=O)c1ccc(NC(=O)CCCc2ccc(C(Nc3ccc4c(c3)C(=O)NCC4)C(=O)O)cc2)cc1CNC(=O)OC(C)(C)C, 6.0 h, 2 steps): 28.4%

Ki (Factor VIIa): 1060 nM
Molecule: COCCN1Cc2cccc(c2)NC(=O)OC[C@H](C)c2ccc(cc2C)[C@@H](Nc2ccc3cc[nH]c(=O)c3c2)C1=O [Example 152, (2R,15R)-4-(2-Methoxy-ethyl)-15,17-dimethyl-2-(1-oxo-1,2-dihydro-isoquinolin-7-ylamino)-13-oxa-4,11-diaza-tricyclo[14.2.2.1^6,10]henicosa-1(19),6,8,10(21),16(20),17-hexaene-3,12-dione]

Ki (Factor VIIa): 1460 nM
Molecule: COC(=O)NCCN1Cc2cccc(c2)NC(=O)OC[C@H](C)c2ccc(cc2C)[C@@H](Nc2ccc3cc[nH]c(=O)c3c2)C1=O [Example 153, {2-[(2R,15R)-15,17-Dimethyl-3,12-dioxo-2-(1-oxo-1,2-dihydro-isoquinolin-7-ylamino)-13-oxa-4,11-diaza-tricyclo[14.2.2.1^6,10]henicosa-1(19),6,8,10(21),16(20),17-hexaen-4-yl]-ethyl}-carbamic acid methyl ester]

Ki (Factor VIIa): 1000 nM
Molecule: CCOC(=O)CCN1Cc2cccc(c2)NC(=O)OC[C@H](C)c2ccc(cc2C)[C@@H](Nc2ccc3cc[nH]c(=O)c3c2)C1=O [Example 154, 3-[(2R,15R)-15,17-Dimethyl-3,12-dioxo-2-(1-oxo-1,2-dihydro-isoquinolin-7-ylamino)-13-oxa-4,11-diaza-tricyclo[14.2.2.1^6,10]henicosa-1(19),6,8,10(21),16(20),17-hexaen-4-yl]-propionic acid ethyl ester]

Ki (Factor VIIa): 27.1 nM and 97.5 nM
Molecule: Cc1cc2ccc1[C@@H](C)COC(=O)Nc1cccc(c1)[C@@H](C)NC(=O)[C@@H]2Nc1ccc2cc[nH]c(=O)c2c1 [Example 158]

Ki (Factor VIIa): 0.88 nM
Molecule: Cc1cc2ccc1[C@@H](C)COC(=O)Nc1ccc(N3C(=O)C4CCC3CC4)c(c1)CN(C)C(=O)[C@@H]2Nc1ccc2cc[nH]c(=O)c2c1 [Example 168, (2R,15R)-4,15,17-Trimethyl-7-(3-oxo-2-aza-bicyclo[2.2.2]oct-2-yl)-2-(1-oxo-1,2-dihydro-isoquinolin-7-ylamino)-13-oxa-4,11-diaza-tricyclo[14.2.2.1^6,10]henicosa-1(19),6,8,10(21),16(20),17-hexaene-3,12-dione]

Molecule: recombinant nematode anticoagulant protein c2 [rNAPc2]
magnitude and duration of ischemic events [3]: reduces magnitude and duration of ischemic events | deep vein thrombosis [4]: prevents deep vein thrombosis | systemic thrombin generation [5]: reduces systemic thrombin generation

— US8420830B2, “Macrocyclic factor VIIa inhibitors useful as anticoagulants” (Bristol-Myers Squibb Company, priority 2006, dated 2013)
